Assay results from PMC5458547, “Discovery of first-in-class reversible dual small molecule inhibitors against G9a and DNMTs in hematological malignancies” (Nature Communications, 2017).
“And” between values parts separate entries of the source, which are not always exact repeats. Identical values can stand only once.

Assays:
[1] = target: T1, EZH2 (Homo sapiens, UniProt Q15910); assay: Epigenetics selectivity panel (BPS Bioscience); type: biochemical
T1 construct: purchased DiscoverX KINOMEscan (kinases); BPS Bioscience (epigenetic targets)

[2] = target: T2, GLP (Homo sapiens, UniProt Q9H9B1); assay: Epigenetics selectivity panel (BPS Bioscience); type: biochemical; conditions: for IC50: chemiluminescence assay carried out at BPS
T2 construct: purchased BPS Bioscience (contract panel)
T2 sequence (Q9H9B1 1-1298): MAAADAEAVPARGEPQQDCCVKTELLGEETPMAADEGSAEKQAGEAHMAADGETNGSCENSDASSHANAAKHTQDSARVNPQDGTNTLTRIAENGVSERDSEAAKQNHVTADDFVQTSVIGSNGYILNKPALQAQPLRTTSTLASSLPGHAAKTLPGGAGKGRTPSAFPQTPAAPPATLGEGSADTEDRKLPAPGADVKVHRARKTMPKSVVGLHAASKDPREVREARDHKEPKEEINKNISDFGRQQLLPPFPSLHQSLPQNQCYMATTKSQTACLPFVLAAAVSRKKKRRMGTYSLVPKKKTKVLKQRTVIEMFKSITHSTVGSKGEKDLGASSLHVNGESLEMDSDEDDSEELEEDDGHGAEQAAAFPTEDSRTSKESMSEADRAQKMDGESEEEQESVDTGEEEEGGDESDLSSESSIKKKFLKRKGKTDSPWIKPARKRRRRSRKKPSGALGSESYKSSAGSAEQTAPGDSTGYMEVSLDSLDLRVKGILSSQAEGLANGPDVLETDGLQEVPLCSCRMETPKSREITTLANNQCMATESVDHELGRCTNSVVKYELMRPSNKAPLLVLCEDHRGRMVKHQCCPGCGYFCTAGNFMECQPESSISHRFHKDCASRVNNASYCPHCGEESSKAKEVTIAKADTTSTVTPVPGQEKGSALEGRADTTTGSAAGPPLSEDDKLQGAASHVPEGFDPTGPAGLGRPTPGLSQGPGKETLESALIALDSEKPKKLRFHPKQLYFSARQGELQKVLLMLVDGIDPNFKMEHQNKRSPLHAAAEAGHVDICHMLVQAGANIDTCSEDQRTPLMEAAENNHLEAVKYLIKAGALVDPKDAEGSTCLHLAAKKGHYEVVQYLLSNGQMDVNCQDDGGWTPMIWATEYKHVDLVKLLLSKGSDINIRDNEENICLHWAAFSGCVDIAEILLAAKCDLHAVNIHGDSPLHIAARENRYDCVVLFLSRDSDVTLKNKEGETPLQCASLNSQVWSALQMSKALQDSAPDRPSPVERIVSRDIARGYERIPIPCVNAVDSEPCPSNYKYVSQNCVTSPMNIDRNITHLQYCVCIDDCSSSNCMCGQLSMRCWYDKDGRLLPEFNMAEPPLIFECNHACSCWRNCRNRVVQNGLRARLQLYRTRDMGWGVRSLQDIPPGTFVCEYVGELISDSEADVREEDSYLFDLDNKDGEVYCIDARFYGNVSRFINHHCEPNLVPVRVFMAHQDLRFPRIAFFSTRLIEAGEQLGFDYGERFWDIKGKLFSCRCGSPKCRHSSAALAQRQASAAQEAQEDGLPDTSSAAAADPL

[3] = target: T3, BAZ2B (Homo sapiens, UniProt Q9UIF8); assay: Epigenetics selectivity panel (BPS Bioscience); type: binding
T3 construct: purchased DiscoverX KINOMEscan (kinases); BPS Bioscience (epigenetic targets)
T3 sequence (Q9UIF8 whole entry): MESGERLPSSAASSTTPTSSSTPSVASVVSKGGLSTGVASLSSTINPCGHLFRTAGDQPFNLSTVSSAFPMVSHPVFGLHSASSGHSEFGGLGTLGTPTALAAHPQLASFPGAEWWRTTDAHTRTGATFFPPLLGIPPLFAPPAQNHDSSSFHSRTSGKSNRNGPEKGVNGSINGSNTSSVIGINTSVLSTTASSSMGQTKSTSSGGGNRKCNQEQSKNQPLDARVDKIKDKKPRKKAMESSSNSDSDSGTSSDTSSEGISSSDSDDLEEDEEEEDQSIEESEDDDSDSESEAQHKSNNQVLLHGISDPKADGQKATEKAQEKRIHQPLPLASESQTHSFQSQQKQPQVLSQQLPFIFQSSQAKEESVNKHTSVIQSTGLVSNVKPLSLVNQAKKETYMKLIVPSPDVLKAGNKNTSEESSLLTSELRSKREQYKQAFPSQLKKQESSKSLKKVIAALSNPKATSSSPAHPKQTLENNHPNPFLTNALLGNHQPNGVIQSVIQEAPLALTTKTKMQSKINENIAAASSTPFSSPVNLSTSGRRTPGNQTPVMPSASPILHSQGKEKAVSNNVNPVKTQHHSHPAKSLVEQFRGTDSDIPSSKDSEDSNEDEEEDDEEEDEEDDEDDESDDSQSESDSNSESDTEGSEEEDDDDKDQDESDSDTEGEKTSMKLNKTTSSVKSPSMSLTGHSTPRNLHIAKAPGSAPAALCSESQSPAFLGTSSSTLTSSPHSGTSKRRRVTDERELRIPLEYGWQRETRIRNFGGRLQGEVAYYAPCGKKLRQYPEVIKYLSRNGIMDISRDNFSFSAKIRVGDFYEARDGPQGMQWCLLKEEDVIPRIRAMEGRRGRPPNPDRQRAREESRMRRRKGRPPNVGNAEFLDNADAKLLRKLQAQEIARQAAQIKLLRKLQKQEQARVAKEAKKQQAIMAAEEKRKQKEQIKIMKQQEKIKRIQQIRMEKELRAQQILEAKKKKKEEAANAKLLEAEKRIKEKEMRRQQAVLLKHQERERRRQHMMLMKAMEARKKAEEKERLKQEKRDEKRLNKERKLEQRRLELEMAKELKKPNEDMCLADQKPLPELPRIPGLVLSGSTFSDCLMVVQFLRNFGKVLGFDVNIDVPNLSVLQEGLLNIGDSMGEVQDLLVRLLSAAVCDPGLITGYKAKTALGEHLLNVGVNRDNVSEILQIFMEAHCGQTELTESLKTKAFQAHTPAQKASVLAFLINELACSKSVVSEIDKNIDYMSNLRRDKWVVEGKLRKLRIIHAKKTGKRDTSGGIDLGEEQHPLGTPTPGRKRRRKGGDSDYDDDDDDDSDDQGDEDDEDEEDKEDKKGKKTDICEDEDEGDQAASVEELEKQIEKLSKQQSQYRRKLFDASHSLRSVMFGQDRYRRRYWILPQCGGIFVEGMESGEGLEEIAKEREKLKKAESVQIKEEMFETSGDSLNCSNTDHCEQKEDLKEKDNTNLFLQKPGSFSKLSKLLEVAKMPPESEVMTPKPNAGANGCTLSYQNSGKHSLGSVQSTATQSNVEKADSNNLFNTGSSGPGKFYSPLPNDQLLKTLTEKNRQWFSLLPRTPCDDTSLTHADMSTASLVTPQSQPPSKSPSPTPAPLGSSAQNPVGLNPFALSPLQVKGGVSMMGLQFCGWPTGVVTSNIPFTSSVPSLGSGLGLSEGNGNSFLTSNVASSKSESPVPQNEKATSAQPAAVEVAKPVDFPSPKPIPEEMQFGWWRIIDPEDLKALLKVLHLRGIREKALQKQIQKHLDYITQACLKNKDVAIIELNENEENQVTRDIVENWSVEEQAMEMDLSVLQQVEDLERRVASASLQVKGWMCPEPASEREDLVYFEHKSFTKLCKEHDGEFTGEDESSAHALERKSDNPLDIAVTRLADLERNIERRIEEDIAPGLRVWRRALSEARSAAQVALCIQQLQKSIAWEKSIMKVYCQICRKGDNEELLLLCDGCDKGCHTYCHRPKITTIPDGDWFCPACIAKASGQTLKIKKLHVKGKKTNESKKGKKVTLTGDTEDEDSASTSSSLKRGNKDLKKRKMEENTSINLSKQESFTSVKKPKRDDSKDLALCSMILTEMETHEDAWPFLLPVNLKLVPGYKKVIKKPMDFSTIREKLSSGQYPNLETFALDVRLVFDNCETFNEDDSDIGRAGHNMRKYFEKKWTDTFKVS

[4] = target: T4, BRDT(BD1) (Homo sapiens, UniProt Q58F21); assay: Epigenetics selectivity panel (BPS Bioscience); type: binding
T4 construct: purchased DiscoverX KINOMEscan (kinases); BPS Bioscience (epigenetic targets)

[5] = target: T5, TRIM24 (Homo sapiens, UniProt O15164); assay: Epigenetics selectivity panel (BPS Bioscience); type: binding
T5 construct: purchased DiscoverX KINOMEscan (kinases); BPS Bioscience (epigenetic targets)
T5 sequence (O15164 whole entry): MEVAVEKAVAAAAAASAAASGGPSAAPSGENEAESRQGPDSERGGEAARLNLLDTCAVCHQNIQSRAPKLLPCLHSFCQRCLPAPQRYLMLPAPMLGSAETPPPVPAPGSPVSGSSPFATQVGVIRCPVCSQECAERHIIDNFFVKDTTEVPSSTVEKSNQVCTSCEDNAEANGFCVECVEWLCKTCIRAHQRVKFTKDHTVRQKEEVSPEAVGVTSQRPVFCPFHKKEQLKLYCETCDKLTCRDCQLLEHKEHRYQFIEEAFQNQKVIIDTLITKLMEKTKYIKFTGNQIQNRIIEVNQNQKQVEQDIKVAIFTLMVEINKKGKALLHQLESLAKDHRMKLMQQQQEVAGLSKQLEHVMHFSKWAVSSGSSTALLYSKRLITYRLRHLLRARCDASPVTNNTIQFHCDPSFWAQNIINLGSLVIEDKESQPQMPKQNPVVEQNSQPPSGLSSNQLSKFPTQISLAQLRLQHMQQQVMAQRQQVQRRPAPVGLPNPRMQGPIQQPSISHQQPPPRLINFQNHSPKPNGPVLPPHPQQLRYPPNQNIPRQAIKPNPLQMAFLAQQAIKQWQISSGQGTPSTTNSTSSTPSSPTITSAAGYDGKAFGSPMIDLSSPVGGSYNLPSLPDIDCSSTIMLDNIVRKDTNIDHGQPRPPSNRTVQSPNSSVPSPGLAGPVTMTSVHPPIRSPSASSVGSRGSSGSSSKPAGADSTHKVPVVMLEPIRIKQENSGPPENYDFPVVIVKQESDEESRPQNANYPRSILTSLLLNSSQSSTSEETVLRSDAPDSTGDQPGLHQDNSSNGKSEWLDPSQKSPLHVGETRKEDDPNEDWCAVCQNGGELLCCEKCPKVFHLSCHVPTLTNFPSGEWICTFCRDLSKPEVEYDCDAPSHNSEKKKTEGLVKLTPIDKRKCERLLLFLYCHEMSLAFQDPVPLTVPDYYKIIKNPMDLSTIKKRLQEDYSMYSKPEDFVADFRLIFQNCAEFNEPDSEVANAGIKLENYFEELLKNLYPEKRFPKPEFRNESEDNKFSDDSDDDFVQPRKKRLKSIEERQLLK

[6] = target: T6, JMJD2D (Homo sapiens, UniProt Q6B0I6); assay: Epigenetics selectivity panel (BPS Bioscience); type: biochemical
T6 construct: purchased DiscoverX KINOMEscan (kinases); BPS Bioscience (epigenetic targets)

[7] = target: T7, JMJD3 (Homo sapiens, UniProt O15054); assay: Epigenetics selectivity panel (BPS Bioscience); type: biochemical
T7 construct: purchased DiscoverX KINOMEscan (kinases); BPS Bioscience (epigenetic targets)

[8] = target: T8, Jarid1C (Homo sapiens, UniProt P41229); assay: Epigenetics selectivity panel (BPS Bioscience); type: biochemical
T8 construct: purchased DiscoverX KINOMEscan (kinases); BPS Bioscience (epigenetic targets)
T8 sequence (P41229 whole entry): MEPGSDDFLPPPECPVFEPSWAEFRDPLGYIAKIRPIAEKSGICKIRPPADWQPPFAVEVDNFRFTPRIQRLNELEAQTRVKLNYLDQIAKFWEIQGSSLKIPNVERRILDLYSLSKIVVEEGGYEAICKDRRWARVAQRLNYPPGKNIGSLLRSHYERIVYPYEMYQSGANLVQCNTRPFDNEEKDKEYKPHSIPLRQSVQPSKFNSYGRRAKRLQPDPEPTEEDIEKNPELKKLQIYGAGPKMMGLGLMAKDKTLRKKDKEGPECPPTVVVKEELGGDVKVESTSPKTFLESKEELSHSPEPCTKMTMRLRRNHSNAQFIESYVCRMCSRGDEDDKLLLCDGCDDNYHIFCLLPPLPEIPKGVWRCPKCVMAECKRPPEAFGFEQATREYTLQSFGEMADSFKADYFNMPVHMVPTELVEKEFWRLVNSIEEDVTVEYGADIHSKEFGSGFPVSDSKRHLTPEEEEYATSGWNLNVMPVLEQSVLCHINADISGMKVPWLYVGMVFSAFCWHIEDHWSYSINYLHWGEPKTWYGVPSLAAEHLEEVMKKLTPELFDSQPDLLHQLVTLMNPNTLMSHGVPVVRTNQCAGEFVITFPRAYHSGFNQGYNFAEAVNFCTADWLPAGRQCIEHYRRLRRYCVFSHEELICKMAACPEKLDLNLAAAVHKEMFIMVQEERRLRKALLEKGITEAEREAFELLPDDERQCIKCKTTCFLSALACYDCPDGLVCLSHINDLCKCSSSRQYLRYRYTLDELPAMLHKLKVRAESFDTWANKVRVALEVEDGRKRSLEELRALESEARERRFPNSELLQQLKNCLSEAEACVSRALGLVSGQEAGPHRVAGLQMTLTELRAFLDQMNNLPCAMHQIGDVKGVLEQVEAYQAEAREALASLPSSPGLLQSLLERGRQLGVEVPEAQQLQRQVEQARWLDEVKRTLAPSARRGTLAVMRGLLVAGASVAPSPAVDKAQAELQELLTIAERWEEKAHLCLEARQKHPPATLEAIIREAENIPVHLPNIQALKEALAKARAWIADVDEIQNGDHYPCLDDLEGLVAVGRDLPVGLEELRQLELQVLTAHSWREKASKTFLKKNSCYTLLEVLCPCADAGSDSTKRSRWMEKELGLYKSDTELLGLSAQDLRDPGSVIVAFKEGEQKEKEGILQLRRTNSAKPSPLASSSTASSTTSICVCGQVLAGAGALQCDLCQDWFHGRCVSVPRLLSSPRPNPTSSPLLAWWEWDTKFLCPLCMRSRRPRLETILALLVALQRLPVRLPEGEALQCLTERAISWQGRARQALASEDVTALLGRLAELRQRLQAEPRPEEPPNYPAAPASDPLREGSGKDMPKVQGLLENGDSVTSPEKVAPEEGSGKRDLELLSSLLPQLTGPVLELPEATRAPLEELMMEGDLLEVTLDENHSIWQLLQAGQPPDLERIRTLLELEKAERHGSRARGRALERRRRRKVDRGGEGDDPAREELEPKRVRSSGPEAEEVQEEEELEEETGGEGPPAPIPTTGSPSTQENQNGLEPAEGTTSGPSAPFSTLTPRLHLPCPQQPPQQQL

[9] = target: T9, LSD1 (Homo sapiens, UniProt O60341); assay: Epigenetics selectivity panel (BPS Bioscience); type: biochemical
T9 construct: purchased DiscoverX KINOMEscan (kinases); BPS Bioscience (epigenetic targets)

[10] = Liver microsomal stability; type: in vitro ADME; conditions: human, human liver microsomes; read-out: Liver Microsomal Stability. Estimation T1/2
[11] = test system: MD-901; assay: Cell proliferation assay (MTS); type: cell-based; conditions: Homo sapiens; ABC-DLBCL, 48 h
[12] = test system: RIVA; assay: Cell proliferation assay (MTS); type: cell-based; conditions: Homo sapiens; ABC-DLBCL, 48 h
[13] = test system: HT; assay: Cell proliferation assay (MTS); type: cell-based; conditions: Homo sapiens, GC-DLBCL, 48 h
[14] = test system: OCI-Ly1; assay: Cell proliferation assay (MTS); type: cell-based; conditions: Homo sapiens, GC-DLBCL, 48 h
[15] = test system: PFEIFFER; assay: Cell proliferation assay (MTS); type: cell-based; conditions: Homo sapiens, GC-DLBCL, 48 h
[16] = test system: SU-DHL-7; assay: Cell proliferation assay (MTS); type: cell-based; conditions: Homo sapiens; GC-DLBCL, 48 h
[17] = test system: HL-60; assay: Cell proliferation assay (MTS); type: cell-based; conditions: Homo sapiens, AML, 48 h
[18] = test system: KASUMI-1; assay: Cell proliferation assay (MTS); type: cell-based; conditions: Homo sapiens, AML, 48 h
[19] = test system: MM1.R; assay: Cell proliferation assay (MTS); type: cell-based; conditions: Homo sapiens, MM.1R
[20] = test system: MGH-U3; assay: Cell proliferation assay (MTS); type: cell-based; conditions: Homo sapiens; Bladder
[21] = test system: RT-4; assay: Cell proliferation assay (MTS); type: cell-based; conditions: Homo sapiens, Bladder
[22] = test system: UM-UC-7; assay: Cell proliferation assay (MTS); type: cell-based; conditions: Homo sapiens; Bladder
[23] = test system: COLO-205; assay: Cell proliferation assay (MTS); type: cell-based; conditions: Homo sapiens, Colorectal
[24] = test system: HCT-116; assay: Cell proliferation assay (MTS); type: cell-based; conditions: Homo sapiens, Colorectal
[25] = test system: NP18; assay: Cell proliferation assay (MTS); type: cell-based; conditions: Homo sapiens; Pancreas
[26] = test system: Mia Paca-2; assay: Cell proliferation assay (MTS); type: cell-based; conditions: Homo sapiens, Pancreas
[27] = test system: DU145; assay: Cell proliferation assay (MTS); type: cell-based; conditions: Homo sapiens, DU-145; Prostate
[28] = test system: H23; assay: Cell proliferation assay (MTS); type: cell-based; conditions: Homo sapiens, NCI-H23; NSCLC
[29] = test system: H187; assay: Cell proliferation assay (MTS); type: cell-based; conditions: Homo sapiens, NCI-H187; SCLC

Structure (SMILES): COc1cc2c(NC3CCN(C)CC3)cc(-c3ccc(C)o3)nc2cc1OCCCN1CCCC1 [CM-272, 6-methoxy-2-(5-methyl-2-furyl)-N-(1-methyl-4-piperidyl)-7-(3-pyrrolidin-1-ylpropoxy)quinolin-4-amine]
- inhibition at 10 µM [1]: 1%
- % Inhibition at 10 μM: GLP ([2]; 10 µM): 100% and 75%
- IC50 [2]: 2 nM
- inhibition at 10 µM [3]: 0%
- inhibition at 10 µM [4]: 8%
- inhibition at 10 µM [5]: 0%
- inhibition at 10 µM [6]: 5%
- inhibition at 10 µM [7]: 9%
- inhibition at 10 µM [8]: 1%
- inhibition at 10 µM [9]: 0%
- half-life at 1 µM [10]: > 2.42 h
- GI50 [11]: 1460 nM
- GI50 [12]: 1570 nM
- GI50 [13]: 1170 nM
- GI50 [14]: 1010 nM
- GI50 [15]: 1220 nM
- GI50 [16]: 636 nM
- GI50 [17]: 2900 nM
- GI50 [18]: 7140 nM
- GI50 [19]: 980 nM
- GI50 [20]: 456 nM
- GI50 [21]: 817 nM
- GI50 [22]: 964 nM
- GI50 [23]: 679 nM
- GI50 [24]: 602 nM
- GI50 [25]: 577 nM
- GI50 [26]: 206 nM
- GI50 [27]: 762 nM
- GI50 [28]: 2490 nM
- GI50 [29]: 1640 nM

Structure (SMILES): COc1cc2c(NCC3CCN(C)CC3)cc(-c3ccc(C)o3)nc2cc1OCCCN1CCCC1 [CM-579, 6-methoxy-2-(5-methyl-2-furyl)-N-[(1-methyl-4-piperidyl)methyl]-7-(3-pyrrolidin-1-ylpropoxy)quinolin-4-amine]
- inhibition at 10 µM [1]: 0%
- IC50 [2]: > 10000 nM
- inhibition at 10 µM [3]: 0%
- inhibition at 10 µM [4]: 0%
- inhibition at 10 µM [5]: 0%
- inhibition at 10 µM [6]: 25%
- inhibition at 10 µM [7]: 3%
- inhibition at 10 µM [8]: 13%
- inhibition at 10 µM [9]: 24%
- half-life at 1 µM [10]: 1.48 h
- GI50 [17]: > 10000 nM
- GI50 [18]: 5210 nM
- GI50 [19]: 2110 nM
- GI50 [20]: 141 nM
- GI50 [22]: 531 nM
- GI50 [23]: 275 nM
- GI50 [24]: 176 nM
- GI50 [27]: 223 nM
- GI50 [28]: 1140 nM
- GI50 [29]: 1970 nM
